Source: PubChem BioAssay AID2060340 (Molecular Pharmacology Branch, DTP, NCI, 2025)

Tested on: 349418-098-R-PDC spheroids, viability, % test/control
Test: Anticancer human tumor 349418-098-R-PDC patient-derived lung adenocarcinoma cell line growth inhibition [IpAb]
Details: spheroids with HUVEC and MSC; for IC50: curve of first compound; for viability, T/C: stronger effect = lower value; active means viability on the fitted dose curve at most 10% of control; inactive means the rest
Method in brief: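 Combinations with ipatasertib or abemaciclib were tested on tumour spheroids holding HUVEC (25%) and MSC (15%) alongside 60% malignant cells. Top concentration was at or near clinical Cmax (10 microM if undefined), descending in half-log steps.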
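Further: spheroids exposed to compounds for 7 days.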

C=CC(=O)N1CCN(c2nc(=O)n(-c3c(C)ccnc3C(C)C)c3nc(-c4c(O)cccc4F)c(F)cc23)C(C)C1 (stereo not given) + CC(C)NCC(C(=O)N1CCN(c2ncnc3c2C(C)CC3O)CC1)c1ccc(Cl)cc1
4.01 µM: IC50 (second compound 0.1 µM)
active: viability, T/C (second compound 1 µM, first compound 10 µM) 7.34% | viability, T/C (second compound 3.16 µM, first compound 1 µM) 10% | viability, T/C (second compound 3.16 µM, first compound 3.16 µM) 6.96% | viability, T/C (second compound 3.16 µM, first compound 10 µM) 5.34% | viability, T/C (second compound 10 µM, first compound 0.0316 µM) 6.48% | viability, T/C (second compound 10 µM, first compound 0.1 µM) 8.12% | viability, T/C (second compound 10 µM, first compound 0.316 µM) 6.94% | viability, T/C (second compound 10 µM, first compound 1 µM) 5.09% | viability, T/C (second compound 10 µM, first compound 3.16 µM) 5.95% | viability, T/C (second compound 10 µM, first compound 10 µM) 4.63%
inactive: viability, T/C (second compound 0.1 µM, first compound 0.0316 µM) 95.8% | viability, T/C (second compound 0.1 µM, first compound 0.1 µM) 89.6% | viability, T/C (second compound 0.1 µM, first compound 0.316 µM) 76.7% | viability, T/C (second compound 0.1 µM, first compound 1 µM) 70.2% | viability, T/C (second compound 0.1 µM, first compound 3.16 µM) 64.7% | viability, T/C (second compound 0.1 µM, first compound 10 µM) 21.7% | viability, T/C (second compound 0.316 µM, first compound 0.0316 µM) 51.9% | viability, T/C (second compound 0.316 µM, first compound 0.1 µM) 55.1% | viability, T/C (second compound 0.316 µM, first compound 0.316 µM) 51.4% | viability, T/C (second compound 0.316 µM, first compound 1 µM) 50.2% | viability, T/C (second compound 0.316 µM, first compound 3.16 µM) 23.9% | viability, T/C (second compound 0.316 µM, first compound 10 µM) 12.5% | viability, T/C (second compound 1 µM, first compound 0.0316 µM) 28.4% | viability, T/C (second compound 1 µM, first compound 0.1 µM) 28.3% | viability, T/C (second compound 1 µM, first compound 0.316 µM) 19.6% | viability, T/C (second compound 1 µM, first compound 1 µM) 17.2% | viability, T/C (second compound 1 µM, first compound 3.16 µM) 11.9% | viability, T/C (second compound 3.16 µM, first compound 0.0316 µM) 12.3% | viability, T/C (second compound 3.16 µM, first compound 0.1 µM) 13.3% | viability, T/C (second compound 3.16 µM, first compound 0.316 µM) 11.8%
< 0.0316 µM: IC50 (second compound 1 µM) | IC50 (second compound 3.16 µM) | IC50 (second compound 10 µM)
1 µM: IC50 (second compound 0.316 µM)
